Each structure is given as a SMILES string.

The record followed here is US9078900B2 (priority 2008, dated 2015).

The conditions of this data set: at the end of the third month after implantation.

`Cc1nc2n(c(=O)c1CCN1CCC(c3noc4cc(F)ccc34)CC1)CCCC2` [Risperidone, risperidone]: the “presence of risperidone in the dog plasma” value is reported as “still present at a high level”.
